# Assay results from ChEMBL document CHEMBL3045455, “Design, synthesis and evaluation of novel indomethacinflavonoid mutual prodrugs as safer NSAIDs” (Med Chem Res, 2011).
# Experiments:
# [1] = system: Rattus norvegicus; experiment: Gastrointestinal toxicity in Rattus norvegicus Sprague-Dawley (rat) assessed as ulcer index at 83.98 mg/kg, po measured after 8 hr (reference value: 0.2 +/- 0.06); format: organism-based; set-up: dose 83.98 mg/kg, route oral; conditions: in vivo
# [2] = system: Rattus norvegicus; experiment: Anti-inflammatory activity in carrageenan-induced paw edema Rattus norvegicus Sprague-Dawley (rat) model assessed as increase in paw volume at 20.52 mg/kg, po measured after 4 hr; format: functional
# [3] = system: Rattus norvegicus; experiment: Anti-inflammatory activity in carrageenan-induced paw edema Rattus norvegicus Sprague-Dawley (rat) model assessed as increase in paw volume at 20.52 mg/kg, po measured after 2 hr; format: functional
# [4] = system: Mus musculus; experiment: Analgesic activity in Mus musculus LACCA (mouse) assessed as inhibition of acetic acid-induced writhing at 17.49 mg/kg, po measured during 20 min period beginning 3 min after acetic acid challenge
# [5] = system: Rattus norvegicus; experiment: Gastrointestinal toxicity in Rattus norvegicus Sprague-Dawley (rat) assessed as ulcer index at 82 mg/kg, po measured after 8 hr (reference value: 0.2 +/- 0.06); format: organism-based; set-up: dose 82 mg/kg, route oral; conditions: in vivo
# [6] = system: Rattus norvegicus; experiment: Anti-inflammatory activity in carrageenan-induced paw edema Rattus norvegicus Sprague-Dawley (rat) model assessed as increase in paw volume at 23.95 mg/kg, po measured after 4 hr; format: functional
# [7] = system: Rattus norvegicus; experiment: Anti-inflammatory activity in carrageenan-induced paw edema Rattus norvegicus Sprague-Dawley (rat) model assessed as increase in paw volume at 23.95 mg/kg, po measured after 2 hr; format: functional
# [8] = system: Mus musculus; experiment: Analgesic activity in Mus musculus LACCA (mouse) assessed as inhibition of acetic acid-induced writhing at 17.1 mg/kg, po measured during 20 min period beginning 3 min after acetic acid challenge
# [9] = system: Rattus norvegicus; experiment: Gastrointestinal toxicity in Rattus norvegicus Sprague-Dawley (rat) assessed as ulcer index at 48 mg/kg, po measured after 8 hr (reference value: 0.2 +/- 0.06); format: organism-based; set-up: dose 48 mg/kg, route oral; conditions: in vivo
# [10] = system: Rattus norvegicus; experiment: Anti-inflammatory activity in carrageenan-induced paw edema Rattus norvegicus Sprague-Dawley (rat) model assessed as increase in paw volume at 12 mg/kg, po measured after 4 hr; format: functional
# [11] = system: Rattus norvegicus; experiment: Anti-inflammatory activity in carrageenan-induced paw edema Rattus norvegicus Sprague-Dawley (rat) model assessed as increase in paw volume at 12 mg/kg, po measured after 2 hr; format: functional
# [12] = system: Mus musculus; experiment: Analgesic activity in Mus musculus LACCA (mouse) assessed as inhibition of acetic acid-induced writhing at 10 mg/kg, po measured during 20 min period beginning 3 min after acetic acid challenge
smiles,measurement,setting,value
COc1ccc2c(c1)c(CC(=O)Oc1cc(O)c3c(c1)O[C@H](c1ccc(OC)c(O)c1)CC3=O)c(C)n2C(=O)c1ccc(Cl)cc1 [INDOMETHACIN-HESPERTIN],UI,[1],0.54
same,Activity,[2],38.22%
same,Activity,[3],37.78%
same,inhibition in vivo at 17.49 mg/kg,[4],89.4%
COc1ccc2c(c1)c(CC(=O)Oc1cc(O)c3c(c1)O[C@H](c1ccc(O)cc1)CC3=O)c(C)n2C(=O)c1ccc(Cl)cc1 [INDOMETHACIN-NARINGENIN],UI,[5],0.62
same,Activity,[6],40.46%
same,Activity,[7],39.13%
same,inhibition in vivo at 17.1 mg/kg,[8],86.7%
COc1ccc2c(c1)c(CC(=O)O)c(C)n2C(=O)c1ccc(Cl)cc1 [INDOMETHACIN],UI,[9],5.54
same,Activity,[10],57.39%
same,Activity,[11],48.35%
same,inhibition in vivo at 10 mg/kg,[12],74.2%
